For assay [1], the system named is CWR22Rv1, CWR22Pc and LAPC4 cells. As to the kind of experiment: PC cell migration, Boyden chamber assay. The class given is cell-based. The settings on record: Fibronectin chemoattractant. On the procedure: Stat5 was genetically knocked down by lentiviral expression of shStat5 with shCtrl as control for 3 days followed by treatment with ENZ (40 μM; CWR22Pc, CWR22Rv1; 20 μM LAPC-4) vs. DMSO for 10 days. Equivalent numbers of cells were plated to Boyden chamber inserts with Fibronectin as the chemoattractant in the bottom well, and the migrated cells were imaged and counted.
(§1) To evaluate if ENZ induces EMT and migration of PC cells in our hands, three different PC cell lines were treated with ENZ for 12 days and analyzed for the expression of EMT markers (N-cadherin, Vimentin and Twist1) by immunoprecipitation (IP) and western blotting (FIG. 13). […] The ENZ-induced PC cell migration was inhibited by genetic ablation of Stat5 by lentiviral expression of shStat5 vs. shCtrl (FIG. 14). Human CWR22Pc cells, when inoculated to the prostates of immunocompromised mice, form distant metastases in the liver in 8 weeks after orthotopic growth.

Assay [2] concerns nuclear active Stat5 in PCs. In words: Immunohistochemistry of active Stat5 in PCs of patients treated with ENZ. The class given is in vivo, human. The note with it: biopsies of ENZ-treated PCs. From the text:
We recently reported that ENZ induces a hyperactivated feed-forward Jak2-Stat5 signaling loop in PC to promote ENZ-resistant PC growth(50).

Assay [3] deals with EMT markers (N-cadherin, Vimentin, Twist1, E-cadherin) in PC cell lines. As to the kind of experiment: EMT marker expression in PC cell lines treated with ENZ. It is filed as cell-based. The note with it: three PC cell lines, 12 days. On the procedure:
Lenti-viral expression of ShStat5 3 days prior to ENZ treatment (at indicated concentrations) blocked ENZ-induction of the EMT markers.
as §1

For assay [4], the system named is Stat5 and Jak2 phosphorylation in PC cells. In words: ENZ-induced Jak2-Stat5 phosphorylation in PC cells (IP and WB). It is filed as cell-based.
Description: CWR22Pc and LAPC4 PC cells were treated with ENZ or vehicle for the indicated periods of time. Levels of active Stat5 were determined by immunoprecipitation (IP) of Stat5 followed by immunoblotting (WB) for pStat5a/b and total Stat5. Whole cell lysates (WCL) were immunoblotted for pStat3, Stat3 and Actin. […] CWR22Pc and LAPC4 cells were transduced with lentiviral AR shRNA (shAR) or lenti-shCtrl for 3 days followed by treatment with ENZ or vehicle for 7 days at the indicated concentrations.
PC cells were cultured with ENZ or Jak2 inhibitor AZD1480 (800 nM) alone or in combination for 12 days. Expression levels of active Stat5 were determined by IP of Stat5 followed by WB for pStat5a/b and total Stat5. WCLs were immunoblotted for pStat3, Stat3 and Actin. […] Jak2 was suppressed by lentiviral Jak2 shRNA vs. shCtrl in PC cells for 3 days followed by ENZ or vehicle for 7 days. Active Stat5, Stat5 and Jak2 levels were evaluated by IP and WB, as depicted. […] PC cells were treated with ENZ or vehicle for 6 h at the indicated concentrations. Control cells were stimulated with prolactin (Prl) (10 nM) for 20 min as control for cytokine-induced Jak2 phosphorylation. […] Alternatively, PC cells were treated with ENZ or vehicle for 12 days or stimulated with Prl for 20 min at the indicated concentrations. Stat5 and Jak2 were IP:ed and WB:ed for pStat5, pJak2, tot Stat5, and total Jak2.
To investigate whether AR is required for ENZ induction of Stat5 signaling, we inhibited AR expression in CWR22Pc and LAPC4 cells by genetic knockdown using lentiviral expression of AR shRNA (FIG. 9C).
To further assess the involvement of Jak2 in ENZ-induced Stat5 activation, Jak2 was genetically knocked down by lentiviral expression of Jak2 shRNA in CWR22Pc and LAPC4 cells for 3 days followed by ENZ treatment for 7 days.
The subject of another assay is CRPC. The note with it: cited from earlier work.

Consider `CNC(=O)c1ccc(N2C(=S)N(c3ccc(C#N)c(C(F)(F)F)c3)C(=O)C2(C)C)cc1F` [ENZ, 4-(3-(4-cyano-3-(trifluoromethyl)phenyl)-5,5-dimethyl-4-oxo-2-thioxoimidazolidin-1-yl)-2-fluoro-N-methylbenzamide], for which the “migration of PC cell lines” value in assay [1] is recorded as “induces a robust migration”. The “levels of nuclear active Stat5 versus hormone-naïve PCs” value in assay [2] was “significantly (p<0.0001) elevated”. Further, in assay [3], the “expression of EMT markers” value was “induced the expression of N-cadherin, Vimentin and Twist1, while suppressing E-cadherin expression”. For the same compound, the “Stat5 phosphorylation in PC cell lines” value in assay [4] (FIG. 9) was “induced a robust Stat5 phosphorylation”. Further, the “phosphorylation of Jak2 in PC cells” value in assay [4] (FIGS. 10C-10D) was “induced robust phosphorylation of Jak2”. The “improvement in survival of PC patients” value with CRPC is on record as 4-6 months.
